# Assay results reported in patent publication US8859601B2, “Substituted benzyl and phenylsulfonyl triazolones, and use thereof” (Bayer Intellectual Property GmbH, priority 2008, dated 2014).
# Experiments:
# human V1a receptor = molecular target: T1, human V1a receptor (Homo sapiens, UniProt P37288); experiment: Cellular in vitro assay for determining the vasopressin receptor activity (aequorin luminescence, antagonism of [Arg8]-vasopressin), hV1a; type: cell-based; conditions: CHO cell line transfected with the human V1a receptor; agonist [Arg8]-vasopressin
# T1 construct: expressed in transfected cells; host or cells: CHO K1 (ATCC), constitutively expressing a modified aequorin
# Description: (§1) B-1. Cellular In Vitro Assay for Determining the Vasopressin Receptor Activity
# (§2) The identification of agonists and antagonists of the V1a and V2 vasopressin receptors from humans and rats and also the quantification of the activity of the substances described here took place using recombinant cell lines. These cells derive originally from a hamster ovary epithelial cell (Chinese Hamster Ovary, CHO K1, ATCC: American Type Culture Collection, Manassas, Va. 20108, USA). The test cell lines constitutively express a modified form of the calcium-sensitive photoprotein aequorin, which, after reconstitution with the cofactor coelenterazine, emits light when there are increases in the free calcium concentration (Rizzuto R., Simpson A. W., Brini M., Pozzan T.; Nature 358 (1992) 325-327). In addition, the cells are stably transfected with the human or rat V1a or V2 receptors. In the case of the Gs-coupling V2 receptors, the cells are stably transfected with a further gene, which codes for the promiscuous Gα16 protein (Amatruda T. T., Steele D. A., Slepak V. Z., Simon M. I., Proc. Nat. Acad. Sci. USA 88 (1991), 5587-5591), either independently or as a fusion gene. The resulting vasopressin receptor test cells react to stimulation of the recombinantly expressed vasopressin receptors by intracellular release of calcium ions, which can be quantified by the resulting aequorin luminescence using a suitable luminometer (Milligan G., Marshall F., Rees S., Trends in Pharmaco. Sci. 17 (1996) 235-237).
# (§3) On the day before the assay, the cells are plated out in culture medium (DMEM, 10% FCS, 2 mM glutamine, 10 mM HEPES) in 384-well microtiter plates and kept in a cell incubator (96% humidity, 5% v/v carbon dioxide, 37° C.). On the day of the assay, the culture medium is replaced by a Tyrode solution (140 mM sodium chloride, 5 mM potassium chloride, 1 mM magnesium chloride, 2 mM calcium chloride, 20 mM glucose, 20 mM HEPES), which additionally contains the cofactor coelenterazine (50 μM), and the microtiter plate is then incubated for a further 3-4 hours. The test substances in various concentrations are placed for 10 to 20 minutes in the wells of the microtiter plate before the agonist [Arg8]-vasopressin is added, and the resulting light signal is measured immediately in the luminometer. The IC50 values are calculated using the GraphPad PRISM computer program (Version 3.02).
# (§4) The table below lists representative IC50 values for the compounds of the invention on the cell line transfected with the human V1a or V2 receptor: […]
# human V2 receptor = molecular target: T2, human V2 receptor (Homo sapiens, UniProt P30518); experiment: Cellular in vitro assay for determining the vasopressin receptor activity (aequorin luminescence, antagonism of [Arg8]-vasopressin), hV2; type: cell-based; conditions: CHO cell line transfected with the human V2 receptor (and Gα16); agonist [Arg8]-vasopressin
# T2 construct: Gα16 (possible fusion partner; the text leaves open whether it was fused or expressed separately); expressed in transfected cells; host or cells: CHO K1 (ATCC), constitutively expressing a modified aequorin and co-transfected with Gα16
# Description: as §1, §2, §3, §4
# T1 sequence (P37288 whole entry): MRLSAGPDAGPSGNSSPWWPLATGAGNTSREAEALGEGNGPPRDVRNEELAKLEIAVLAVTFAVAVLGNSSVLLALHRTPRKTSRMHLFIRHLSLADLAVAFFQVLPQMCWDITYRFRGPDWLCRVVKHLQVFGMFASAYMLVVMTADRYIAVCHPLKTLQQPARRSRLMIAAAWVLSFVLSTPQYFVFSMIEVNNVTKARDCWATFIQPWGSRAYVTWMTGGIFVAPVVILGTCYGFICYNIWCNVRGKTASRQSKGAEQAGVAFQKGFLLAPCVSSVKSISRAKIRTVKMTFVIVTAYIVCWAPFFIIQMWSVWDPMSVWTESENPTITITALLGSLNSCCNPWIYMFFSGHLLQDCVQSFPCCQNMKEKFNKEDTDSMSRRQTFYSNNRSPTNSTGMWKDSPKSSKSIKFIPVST
# T2 sequence (P30518 whole entry, the tested form may be a part): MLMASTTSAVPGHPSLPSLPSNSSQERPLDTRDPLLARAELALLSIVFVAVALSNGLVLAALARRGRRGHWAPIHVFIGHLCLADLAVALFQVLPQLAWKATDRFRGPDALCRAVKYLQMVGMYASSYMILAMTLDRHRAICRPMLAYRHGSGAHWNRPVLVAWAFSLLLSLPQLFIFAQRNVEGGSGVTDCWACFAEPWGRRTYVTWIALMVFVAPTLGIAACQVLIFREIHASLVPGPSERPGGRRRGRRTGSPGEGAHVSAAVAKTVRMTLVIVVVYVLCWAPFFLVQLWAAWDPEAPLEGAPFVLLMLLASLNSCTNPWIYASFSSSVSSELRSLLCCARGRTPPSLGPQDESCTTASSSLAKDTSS
IC50 (human V1a receptor),IC50 (human V2 receptor),Structure (SMILES)
5.5 µM,0.003 µM,"C=CCn1c(-c2ccc(Cl)cc2)nn(S(=O)(=O)c2ccc(C(=O)NC(C)(C)C)cc2OC)c1=O [Example 1, N-tert-Butyl-4-{[3-(4-chlorophenyl)-5-oxo-4-prop-2-en-1-yl-4,5-dihydro-1H-1,2,4-triazol-1-yl]sulphonyl}-3-methoxybenzenecarboxamide]"
3.7 µM,0.003 µM,COc1cc(C(=O)NC(C)(C)C)ccc1S(=O)(=O)n1nc(-c2ccc(Cl)cc2)n(C2CC2)c1=O [Example 2]
> 25 µM,0.013 µM,COc1cc(C(=O)NC(C)(C)C)ccc1S(=O)(=O)n1nc(OC(C)C)n(C2CC2)c1=O [Example 3]
> 25 µM,0.007 µM,COc1cc(C(=O)NC(C)(C)C)ccc1S(=O)(=O)n1nc(N(C)C)n(C2CC2)c1=O [Example 7]
3.5 µM,0.29 µM,COc1ccc(C(C)=O)cc1S(=O)(=O)n1nc(-c2ccc(Cl)cc2)n(C2CC2)c1=O [Example 13]
> 25 µM,0.009 µM,"COc1cc(C(=O)NC(C)(C)C)ccc1S(=O)(=O)n1nc(-c2ccc(Cl)cc2)[nH]c1=O [Example 14, N-tert-Butyl-4-{[3-(4-chlorophenyl)-5-oxo-4,5-dihydro-1H-1,2,4-triazol-1-yl]sulphonyl}-3-methoxybenzenecarboxamide]"
7.1 µM,0.004 µM,"CC(C)(C)NC(=O)c1ccc(S(=O)(=O)n2nc(-c3ccc(Cl)cc3)n(C3CC3)c2=O)cc1 [Example 17, N-tert-Butyl-4-{[3-(4-chlorophenyl)-4-cyclopropyl-5-oxo-4,5-dihydro-1H-1,2,4-triazol-1-yl]sulphonyl}benzenecarboxamide]"
15.2 µM,0.004 µM,"COc1cc(C(=O)NC(C)(C)C)ccc1Cn1nc(-c2ccc(Cl)cc2)n(C2CC2)c1=O [Example 20, N-tert-Butyl-4-{[3-(4-chlorophenyl)-4-cyclopropyl-5-oxo-4,5-dihydro-1H-1,2,4-triazol-1-yl]methyl}-3-methoxybenzenecarboxamide]"
0.87 µM,0.22 µM,"COc1cc(Cn2nc(-c3ccc(Cl)cc3)n(C3CC3)c2=O)ccc1C(=O)NC(C)(C)C [Example 22, N-tert-Butyl-4-{[3-(4-chlorophenyl)-4-cyclopropyl-5-oxo-4,5-dihydro-1H-1,2,4-triazol-1-yl]methyl}-2-methoxybenzamide]"
4.2 µM,0.027 µM,"CC(C)(C)NC(=O)c1ccc(Cn2nc(-c3ccc(Cl)cc3)n(C3CC3)c2=O)c(Cl)c1 [Example 27, N-tert-Butyl-3-chloro-4-{[3-(4-chlorophenyl)-4-cyclopropyl-5-oxo-4,5-dihydro-1H-1,2,4-triazol-1-yl]methyl}benzamide]"
